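Cultured in 96-well plates, cells were exposed to test compound for 48 hours across five concentrations. Abbreviation: GI50, concentration required for 50% inhibition of growth. Definition used: TGI = concentration required for complete inhibition of growth.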
Tests used:
Assay in all cases: inhibition of tumour cell growth, NCI panel, 48 h
[1] = test system: SK-OV-3 ovarian
[2] = test system: UACC-257 melanoma
[3] = test system: SK-MEL-5 melanoma
[4] = test system: KM12 colon
[5] = test system: HCC-2998 colon
[6] = test system: MDA-MB-435
[7] = test system: SNB-19 CNS
[8] = test system: COLO 205 colon
[9] = test system: T-47D breast
[10] = test system: OVCAR-5 ovarian

O=C(Nc1cccc(-c2nc3ccccc3[nH]2)c1)c1cccc(NC(=O)c2ccco2)c1
GI50 [1]: 2.35 µM
TGI [1]: 4.42 µM
GI50 [2]: 2.3 µM
TGI [2]: 5.34 µM
GI50 [3]: 1.89 µM
TGI [3]: 4.1 µM
GI50 [4]: 2.27 µM
TGI [4]: 5.61 µM
GI50 [5]: 10 µM
TGI [5]: 21.5 µM
GI50 [6]: 1.67 µM
TGI [6]: 3.04 µM
GI50 [7]: 2.86 µM
TGI [7]: 8.19 µM
GI50 [8]: 3.49 µM
TGI [8]: 10.6 µM
GI50 [9]: 1.75 µM
TGI [9]: 3.79 µM
GI50 [10]: 3.1 µM
TGI [10]: 11.1 µM

N#Cc1c(C(N)=O)ncn1Cc1ccccc1
TGI [1]: > 100 µM
TGI [2]: > 100 µM
TGI [3]: > 100 µM
TGI [4]: > 100 µM
TGI [5]: > 100 µM
TGI [7]: > 100 µM
TGI [8]: > 100 µM
TGI [10]: > 100 µM

COc1ccc(C2c3cc4c(cc3OC(O)(CO)C2C(=O)O)OCO4)c(OC)c1OC (centres undefined) (tested in a mixture with another compound)
TGI [1]: > 100 µM
TGI [2]: > 100 µM
TGI [3]: > 100 µM
TGI [7]: > 100 µM
TGI [8]: > 100 µM

C/C=C/CP(=O)(c1ccccc1)c1ccccc1
TGI [1]: > 100 µM
TGI [2]: > 100 µM
TGI [3]: > 100 µM
TGI [4]: > 100 µM
TGI [5]: > 100 µM
TGI [7]: > 100 µM
TGI [8]: > 100 µM
TGI [10]: > 100 µM

Cc1cccc(Oc2ccc(Nc3ncnc4ccc(NC(=O)CN5CCN(C)CC5)cc34)cc2Cl)c1
GI50 [2]: 1.9 µM
TGI [2]: 3.85 µM
GI50 [3]: 1.64 µM
TGI [3]: 3.03 µM
GI50 [4]: 1.74 µM
TGI [4]: 3.24 µM
GI50 [5]: 1.58 µM
TGI [5]: 3.04 µM
GI50 [6]: 1.59 µM
TGI [6]: 2.99 µM
GI50 [7]: 1.95 µM
TGI [7]: 4.79 µM
GI50 [10]: 1.66 µM
TGI [10]: 3.2 µM

O=C1OC2(c3ccccc31)c1cc(I)c(O)c(I)c1Oc1c2cc(I)c(O)c1I
TGI [1]: > 100 µM
TGI [2]: > 100 µM
TGI [3]: > 100 µM
TGI [4]: 43.1 µM
TGI [6]: > 100 µM
TGI [7]: > 100 µM
TGI [8]: > 100 µM
TGI [9]: > 100 µM
TGI [10]: > 100 µM

CC1=C([Se]CC(OC(=O)[C@@H](CSSC(C)(C)C)NC(=O)C(C)(C)C)C(=O)NCCCCCC(=O)OCc2ccccc2)C(=O)c2ccccc2C1=O (some centres undefined)
GI50 [1]: 1.56 µM
TGI [1]: 2.92 µM
GI50 [3]: 1.89 µM
TGI [3]: 3.34 µM
GI50 [4]: 1.8 µM
TGI [4]: 3.5 µM
GI50 [5]: 2.2 µM
TGI [5]: 4 µM
GI50 [6]: 2.28 µM
TGI [6]: 5.55 µM
GI50 [7]: 1.09 µM
TGI [7]: 2.56 µM
GI50 [8]: 1.8 µM
TGI [8]: 3.47 µM
GI50 [9]: 2.19 µM
TGI [9]: 6.39 µM
GI50 [10]: 2.59 µM
TGI [10]: 5.44 µM

CC(=O)NC(Cc1c[nH]c2ccccc12)C(=O)O (centres undefined)
TGI [1]: > 100 µM
TGI [2]: > 100 µM
TGI [3]: > 100 µM
TGI [4]: > 100 µM
TGI [6]: > 100 µM
TGI [7]: > 100 µM
TGI [8]: > 100 µM
TGI [9]: > 100 µM
TGI [10]: > 100 µM

COc1cc(C(=O)O)ccc1NC(=O)[C@@H]1N[C@@H](CC(C)(C)C)[C@](C#N)(c2ccc(Cl)cc2F)[C@H]1c1cccc(Cl)c1F
GI50 [1]: 7.02 µM
TGI [1]: 21.3 µM
GI50 [2]: 0.145 µM
TGI [2]: 1.83 µM
GI50 [4]: 2.58 µM
TGI [4]: > 24.2 µM
GI50 [5]: 4.62 µM
TGI [5]: 13.3 µM
GI50 [6]: 2.82 µM
TGI [6]: 13.1 µM
GI50 [7]: 5.6 µM
TGI [7]: 31.2 µM
GI50 [8]: 3.1 µM
TGI [8]: 12 µM
GI50 [9]: 5.23 µM
TGI [9]: 43.7 µM
GI50 [10]: 7.23 µM
TGI [10]: 24.9 µM

N#Cc1c(SCc2ccccc2)nc2[nH]c(=S)[nH]c(=S)c2c1-c1ccco1
GI50 [1]: > 100 µM
TGI [1]: > 100 µM
GI50 [2]: 66.5 µM
TGI [2]: > 100 µM
GI50 [3]: 23.9 µM
TGI [3]: > 100 µM
GI50 [4]: 60.3 µM
TGI [4]: > 100 µM
GI50 [6]: 59.5 µM
TGI [6]: > 100 µM
GI50 [7]: 62.2 µM
TGI [7]: > 100 µM
GI50 [8]: 41.2 µM
TGI [8]: > 100 µM
GI50 [10]: 66.4 µM
TGI [10]: > 100 µM

CC(=O)Oc1cc2c(=O)oc3c(OC(C)=O)c(OC(C)=O)c(OC(C)=O)c4c(=O)oc(c1OC(C)=O)c2c34
TGI [1]: > 100 µM
TGI [2]: > 100 µM
TGI [3]: > 100 µM
TGI [4]: > 100 µM
TGI [5]: > 100 µM
TGI [7]: > 100 µM
TGI [8]: > 100 µM
TGI [10]: > 100 µM

Cn1cc(C(=O)/C(Cl)=C(\Cl)C(=O)O)c2ccccc21
TGI [1]: > 100 µM
TGI [2]: > 100 µM
TGI [3]: > 100 µM
TGI [4]: > 100 µM
TGI [5]: > 100 µM
TGI [10]: > 100 µM

O=C1CC(c2ccccc2)NCN1 (centres undefined)
TGI [1]: > 100 µM
TGI [2]: > 100 µM
TGI [3]: > 100 µM
TGI [4]: > 100 µM
TGI [5]: > 100 µM
TGI [7]: > 100 µM
TGI [8]: > 100 µM
TGI [10]: > 100 µM

O=C1C(Br)=C(c2ccccc2)C(c2ccccc2)=C1c1ccccc1
TGI [1]: 29.3 µM
TGI [2]: 9.67 µM
TGI [3]: 9.35 µM
TGI [4]: 18.5 µM
TGI [5]: 15.9 µM
TGI [6]: 12.5 µM
TGI [7]: 24.2 µM
TGI [8]: 3.69 µM
TGI [10]: 25.5 µM

COc1cc(/C=C2\C[C@H]3[C@@H]4CC=C5C[C@@H](OC(C)=O)CC[C@]5(C)[C@H]4CC[C@]3(C)[C@H]2OC(C)=O)ccc1OCCCn1ccnc1
GI50 [2]: 8.43 µM
TGI [2]: 17.3 µM
GI50 [3]: 7.25 µM
TGI [3]: 15.4 µM
GI50 [4]: 8.31 µM
TGI [4]: 18.1 µM
GI50 [5]: 9.47 µM
TGI [5]: 17.7 µM
GI50 [6]: 10.2 µM
TGI [6]: 22.1 µM
GI50 [7]: 21.3 µM
TGI [7]: > 50 µM
GI50 [8]: 11.6 µM
TGI [8]: 38.5 µM
GI50 [9]: 16 µM
TGI [9]: > 50 µM
GI50 [10]: 12.7 µM
TGI [10]: 33.6 µM

NC(=S)N/N=C1\C(=O)N(c2cccc([N+](=O)[O-])c2)C(=O)C1C(=O)Nc1cccc([N+](=O)[O-])c1 (centres undefined)
TGI [1]: > 100 µM
TGI [2]: > 100 µM
TGI [3]: > 100 µM
TGI [5]: > 100 µM
TGI [7]: > 100 µM
TGI [8]: > 100 µM
TGI [10]: > 100 µM

O=c1[nH]cnc2c1nnn2[C@@H]1O[C@H](CO)[C@@H](O)[C@H]1O
GI50 [1]: 0.868 µM
TGI [1]: > 100 µM
GI50 [2]: 28.6 µM
TGI [2]: > 100 µM
GI50 [3]: 13.1 µM
TGI [3]: > 100 µM
GI50 [4]: 7.85 µM
TGI [4]: > 100 µM
GI50 [5]: 4.33 µM
TGI [5]: > 100 µM
GI50 [6]: 6.26 µM
TGI [6]: > 100 µM
GI50 [8]: 3.16 µM
TGI [8]: 20.6 µM
GI50 [9]: 4.53 µM
TGI [9]: > 100 µM
GI50 [10]: 19.3 µM
TGI [10]: > 100 µM

— PubChem BioAssay (NCI)
